Reference: PubChem BioAssay AID2060902 (Molecular Pharmacology Branch, DTP, NCI, 2025)

System: 485368-065-R3-J5-PDC spheroids with HUVEC/MSC, viability
Assay: Anticancer human tumor 485368-065-R3-J5-PDC patient-derived pancreatic carcinoma cell line growth inhibition [RAS]
Details: for IC50: curve of first compound; for viability, T/C: stronger effect = lower value; active = viability on the fitted dose curve at most 10% of control; inactive = the rest
Outline: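 Agents were tested in combination matrices in half-log decrements from a top concentration at or near clinical Cmax (10 microM if undetermined). Targets were multi-cell spheroids of tumour lines plus HUVEC and MSC stromal cells.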

[1] = second compound 0.0316 µM, first compound 0.0316 µM
[2] = second compound 0.0316 µM, first compound 0.1 µM
[3] = second compound 0.0316 µM, first compound 0.316 µM
[4] = second compound 0.0316 µM, first compound 1 µM
[5] = second compound 0.0316 µM, first compound 3.16 µM
[6] = second compound 0.0316 µM, first compound 10 µM
[7] = second compound 0.1 µM, first compound 0.0316 µM
[8] = second compound 0.1 µM, first compound 0.1 µM
[9] = second compound 0.1 µM, first compound 0.316 µM
[10] = second compound 0.1 µM, first compound 1 µM
[11] = second compound 0.1 µM, first compound 3.16 µM
[12] = second compound 0.1 µM, first compound 10 µM
[13] = second compound 0.316 µM, first compound 0.0316 µM
[14] = second compound 0.316 µM, first compound 0.1 µM
[15] = second compound 0.316 µM, first compound 0.316 µM
[16] = second compound 0.316 µM, first compound 1 µM
[17] = second compound 0.316 µM, first compound 3.16 µM
[18] = second compound 0.316 µM, first compound 10 µM
[19] = second compound 1 µM, first compound 0.0316 µM
[20] = second compound 1 µM, first compound 0.1 µM
[21] = second compound 1 µM, first compound 0.316 µM
[22] = second compound 1 µM, first compound 1 µM
[23] = second compound 1 µM, first compound 3.16 µM
[24] = second compound 1 µM, first compound 10 µM
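Note: spheroids exposed to agents for seven days before readout.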

CC(C)NCC(C(=O)N1CCN(c2ncnc3c2C(C)CC3O)CC1)c1ccc(Cl)cc1 (centres undefined) + C#Cc1c(F)ccc2cc(O)cc(-c3ncc4c(N5CC6CCC(C5)N6)nc(OCC56CCCN5CC(F)C6)nc4c3F)c12
8.24 µM: IC50 (second compound 1 µM)
4.34 µM: IC50 (second compound 3.16 µM)
> 10 µM: IC50 (second compound 0.0316 µM) | IC50 (second compound 0.1 µM) | IC50 (second compound 0.316 µM)
< 0.0316 µM: IC50 (second compound 10 µM)
inactive: viability, T/C [1] 116% | viability, T/C [2] 98.7% | viability, T/C [3] 89.3% | viability, T/C [4] 93.5% | viability, T/C [5] 77.1% | viability, T/C [6] 57.8% | viability, T/C [7] 101% | viability, T/C [8] 88.8% | viability, T/C [9] 90.3% | viability, T/C [10] 83.3% | viability, T/C [11] 77.2% | viability, T/C [12] 57.9% | viability, T/C [13] 99% | viability, T/C [14] 101% | viability, T/C [15] 93.9% | viability, T/C [16] 87.9% | viability, T/C [17] 71.2% | viability, T/C [18] 55% | viability, T/C [19] 104% | viability, T/C [20] 106% | viability, T/C [21] 93.5% | viability, T/C [22] 74.9% | viability, T/C [23] 61.9% | viability, T/C [24] 47% | viability, T/C (second compound 3.16 µM, first compound 0.0316 µM) 73.7% | viability, T/C (second compound 3.16 µM, first compound 0.1 µM) 74% | viability, T/C (second compound 3.16 µM, first compound 0.316 µM) 75.2% | viability, T/C (second compound 3.16 µM, first compound 1 µM) 70.8% | viability, T/C (second compound 3.16 µM, first compound 3.16 µM) 54.2% | viability, T/C (second compound 3.16 µM, first compound 10 µM) 38.9% | viability, T/C (second compound 10 µM, first compound 0.0316 µM) 44.1% | viability, T/C (second compound 10 µM, first compound 0.1 µM) 39.4% | viability, T/C (second compound 10 µM, first compound 0.316 µM) 40.3% | viability, T/C (second compound 10 µM, first compound 1 µM) 35.4% | viability, T/C (second compound 10 µM, first compound 3.16 µM) 35.3% | viability, T/C (second compound 10 µM, first compound 10 µM) 26.9%

C[C@@H](NC(=O)c1ncnc(N)c1Cl)c1ncc(C(=O)Nc2cc(C(F)(F)F)c(Cl)cn2)s1 + C=CC(=O)N1CCN(c2nc(OCC3CCCN3C)nc3c(F)c(-c4nc(N)cc(C)c4C(F)(F)F)c(Cl)cc23)C(C)C1
> 10 µM: IC50 (second compound 0.00316 µM) | IC50 (second compound 0.01 µM) | IC50 (second compound 0.0316 µM) | IC50 (second compound 0.1 µM) | IC50 (second compound 0.316 µM) | IC50 (second compound 1 µM)
inactive: viability, T/C (second compound 0.00316 µM, first compound 0.0316 µM) 119% | viability, T/C (second compound 0.00316 µM, first compound 0.1 µM) 99.9% | viability, T/C (second compound 0.00316 µM, first compound 0.316 µM) 104% | viability, T/C (second compound 0.00316 µM, first compound 1 µM) 95% | viability, T/C (second compound 0.00316 µM, first compound 3.16 µM) 86.6% | viability, T/C (second compound 0.00316 µM, first compound 10 µM) 73.7% | viability, T/C (second compound 0.01 µM, first compound 0.0316 µM) 103% | viability, T/C (second compound 0.01 µM, first compound 0.1 µM) 105% | viability, T/C (second compound 0.01 µM, first compound 0.316 µM) 95.8% | viability, T/C (second compound 0.01 µM, first compound 1 µM) 104% | viability, T/C (second compound 0.01 µM, first compound 3.16 µM) 92.1% | viability, T/C (second compound 0.01 µM, first compound 10 µM) 77% | viability, T/C [1] 107% | viability, T/C [2] 94.8% | viability, T/C [3] 104% | viability, T/C [4] 104% | viability, T/C [5] 91.8% | viability, T/C [6] 78.6% | viability, T/C [7] 108% | viability, T/C [8] 103% | viability, T/C [9] 107% | viability, T/C [10] 103% | viability, T/C [11] 94.6% | viability, T/C [12] 77% | viability, T/C [13] 104% | viability, T/C [14] 106% | viability, T/C [15] 107% | viability, T/C [16] 102% | viability, T/C [17] 98.6% | viability, T/C [18] 80.2% | viability, T/C [19] 105% | viability, T/C [20] 111% | viability, T/C [21] 94.7% | viability, T/C [22] 104% | viability, T/C [23] 96.5% | viability, T/C [24] 81.4%
